Measurements from patent US7723523B2, “Tetrahydropyridothiophenes” (4SC AG, priority 2004, dated 2010).

Experiments:
[1] = tested on: RKO colon adenocarcinoma cells (RKOp27) arrested by expression of ectopic p27Kip1; experiment: Alamar Blue cell viability assay on RKOp27 cells arrested by Ponasterone A-induced p27Kip1 (cell cycle specific mode of action); format: cell-based; settings: Homo sapiens, RKOp27, 72 h, cells arrested by p27Kip1 induced with 10 μM Ponasterone A, 72 hours incubation, read-out: IC50 RKO p27 arrested
How it was run: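 Viability measured by Alamar Blue fluorescence (ex 544, em 590 nm) after 72 h, 37 °C compound exposure in quadruplicate, normalized to untreated cells as 100%. Cells were p27Kip1-arrested RKOp27, induced with 10 μM Ponasterone A at seeding; compound added 24 h later.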

[2] = tested on: RKO (RKOp27) human colon adenocarcinoma cells; experiment: Alamar Blue cell viability assay, anti-proliferative/cytotoxic activity on proliferating RKOp27 cells; format: cell-based; settings: absence of Ponasterone A, 72 hours incubation, read-out: IC50 RKO p27 proliferating
How it was run: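 RKOp27 subclone of RKO cells, 4000/well in DMEM with 10% FCS, was treated 24 h after seeding with semi-log compound dilutions in quadruplicate for 72 h at 37 °C, 5% CO2. Alamar Blue fluorescence (ex 544/em 590 nm) was read as % viability of untreated cells, and IC50 was taken from concentration-effect curves.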

IC50 [1] [µM] | SMILES | IC50 [2] [µM]
≥ 100 | COCCOCCOC(=O)N1CCc2c(sc(NC(=O)/C=C/c3ccccc3)c2C#N)C1 [Example 129, 3-Cyano-2-((E)-3-phenyl-allanoylamino)-4,7-dihydro-5H-thieno[2,3-c]pyridine-6-carboxylic acid 2-(2-methoxy-ethoxy)-ethyl ester] | ≤ 2
≥ 100 | CC(=O)NCCOC(=O)N1CCc2c(sc(NC(=O)/C=C/c3ccccc3)c2C#N)C1 [Example 134, 3-Cyano-2-((E)-3-phenyl-allanoylamino)-4,7-dihydro-5H-thieno[2,3-c]pyridine-6-carboxylic acid 2-acetylamino-ethyl ester] | ≤ 2
≥ 100 | N#Cc1c(NC(=O)/C=C/c2ccccc2)sc2c1CCN(C(=O)OCCn1ccnc1)C2 [Example 136, 3-Cyano-2-((E)-3-phenyl-allanoylamino)-4,7-dihydro-5H-thieno[2,3-c]pyridine-6-carboxylic acid 2-imidazol-1-yl-ethyl ester] | ≤ 2
≥ 100 | COc1ccccc1/C=C/C(=O)Nc1sc2c(c1C#N)CCN(C(=O)OCc1ccccn1)C2 [Example 138, 3-Cyano-2-[(E)-3-(2-methoxy-phenyl)-allanoylamino]-4,7-dihydro-5H-thieno[2,3-c]pyridine-6-carboxylic acid pyridin-2-ylmethyl ester] | ≤ 2
≥ 100 | COCCOC(=O)N1CCc2c(sc(NC(=O)/C=C/c3ccccc3Cl)c2C#N)C1 [Example 142, 2-[(E)-3-(2-Chloro-phenyl)-allanoylamino]-3-cyano-4,7-dihydro-5H-thieno[2,3-c]pyridine-6-carboxylic acid 2-methoxy-ethyl ester] | ≤ 2
≥ 100 | COc1ccc(CCOC(=O)N2CCc3c(sc(NC(=O)/C=C/c4cccnc4)c3C#N)C2)cc1 [Example 146, 3-Cyano-2-((E)-3-pyridin-3-yl-allanoylamino)-4,7-dihydro-5H-thieno[2,3-c]pyridine-6-carboxylic acid 2-(4-methoxy-phenyl)-ethyl ester] | ≤ 2
≥ 100 | COc1cccc(COC(=O)N2CCc3c(sc(NC(=O)/C=C/c4cccnc4)c3C#N)C2)c1 [Example 147, 3-Cyano-2-((E)-3-pyridin-3-yl-allanoylamino)-4,7-dihydro-5H-thieno[2,3-c]pyridine-6-carboxylic acid 3-methoxy-benzyl ester] | ≤ 2
≥ 100 | N#Cc1c(NC(=O)/C=C/c2cccnc2)sc2c1CCN(C(=O)OCCCc1ccccc1)C2 [Example 148, 3-Cyano-2-((E)-3-pyridin-3-yl-allanoylamino)-4,7-dihydro-5H-thieno[2,3-c]pyridine-6-carboxylic acid 3-phenyl-propyl ester] | ≤ 2
≥ 100 | N#Cc1c(NC(=O)/C=C/c2cccnc2)sc2c1CCN(C(=O)OCc1cccnc1)C2 [Example 150, 3-Cyano-2-((E)-3-pyridin-3-yl-allanoylamino)-4,7-dihydro-5H-thieno[2,3-c]pyridine-6-carboxylic acid pyridin-3-ylmethyl ester] | ≤ 2
≥ 50 | N#Cc1c(NC(=O)/C=C/c2cccnc2)sc2c1CCN(C(=O)OCCCc1cccnc1)C2 [Example 157, 3-Cyano-2-((E)-3-pyridin-3-yl-allanoylamino)-4,7-dihydro-5H-thieno[2,3-c]pyridine-6-carboxylic acid 3-pyridin-3-yl-propyl ester] | ≤ 0.5
≥ 100 | N#Cc1c(NC(=O)/C=C/c2cccnc2)sc2c1CCN(C(=O)OCCc1cccnc1)C2 [Example 159, 3-Cyano-2-((E)-3-pyridin-3-yl-allanoylamino)-4,7-dihydro-5H-thieno[2,3-c]pyridine-6-carboxylic acid 2-pyridin-3-yl-ethyl ester] | ≤ 2
≥ 100 | N#Cc1c(NC(=O)/C=C/c2cccnc2)sc2c1CCN(C(=O)OCc1ccncc1)C2 [Example 160, 3-Cyano-2-((E)-3-pyridin-3-yl-allanoylamino)-4,7-dihydro-5H-thieno[2,3-c]pyridin-6-carboxylic acid pyridin-4-ylmethyl ester] | ≤ 2
≥ 100 | CCOC(=O)COC(=O)N1CCc2c(sc(NC(=O)/C=C/c3cccnc3)c2C#N)C1 [Example 161, 3-Cyano-2-((E)-3-pyridin-3-yl-allanoylamino)-4,7-dihydro-5H-thieno[2,3-c]pyridine-6-carboxylic acid ethoxycarbonylmethyl ester] | ≤ 2

Second part, the compound before the results:

SMILES | IC50 [1] [µM] | IC50 [2] [µM]
COC(=O)COC(=O)N1CCc2c(sc(NC(=O)/C=C/c3ccccc3)c2C#N)C1 [Example 133, 3-Cyano-2-((E)-3-phenyl-allanoylamino)-4,7-dihydro-5H-thieno[2,3-c]pyridine-6-carboxylic acid methoxycarbonylmethyl ester] | ≥ 100 | ≤ 2
N#Cc1c(NC(=O)/C=C/c2ccccc2)sc2c1CCN(C(=O)OCCO)C2 [Example 135, 3-Cyano-2-((E)-3-phenyl-allanoylamino)-4,7-dihydro-5H-thieno[2,3-c]pyridine-6-carboxylic acid 2-hydroxy-ethyl ester] | ≥ 100 | ≤ 2
COCCOC(=O)N1CCc2c(sc(NC(=O)/C=C/c3ccccc3OC)c2C#N)C1 [Example 137, 3-Cyano-2-[(E)-3-(2-methoxy-phenyl)-allanoylamino]-4,7-dihydro-5H-thieno[2,3-c]pyridine-6-carboxylic acid 2-methoxy-ethyl ester] | ≥ 100 | ≤ 2
COc1ccccc1/C=C/C(=O)Nc1sc2c(c1C#N)CCN(C(=O)OCCc1ccccn1)C2 [Example 139, 3-Cyano-2-[(E)-3-(2-methoxy-phenyl)-allanoylamino]-4,7-dihydro-5H-thieno[2,3-c]pyridine-6-carboxylic acid 2-pyridin-2-yl-ethyl ester] | ≥ 100 | ≤ 2
COc1ccccc1/C=C/C(=O)Nc1sc2c(c1C#N)CCN(C(=O)OCc1cccnc1)C2 [Example 140, 3-Cyano-2-[(E)-3-(2-methoxy-phenyl)-allanoylamino]-4,7-dihydro-5H-thieno[2,3-c]pyridine-6-carboxylic acid pyridin-3-ylmethyl ester] | ≥ 100 | ≤ 2
COc1ccc(OC(=O)N2CCc3c(sc(NC(=O)/C=C/c4cccnc4)c3C#N)C2)cc1 [Example 143, 3-Cyano-2-((E)-3-pyridin-3-yl-allanoylamino)-4,7-dihydro-5H-thieno[2,3-c]pyridine-6-carboxylic acid 4-methoxy-phenyl ester] | ≥ 100 | ≤ 2
N#Cc1c(NC(=O)/C=C/c2cccnc2)sc2c1CCN(C(=O)OCc1ccccc1)C2 [Example 144, 3-Cyano-2-((E)-3-pyridin-3-yl-allanoylamino)-4,7-dihydro-5H-thieno[2,3-c]pyridine-6-carboxylic acid benzyl ester] | ≥ 100 | ≤ 2
CCCOC(=O)N1CCc2c(sc(NC(=O)/C=C/c3cccnc3)c2C#N)C1 [Example 145, 3-Cyano-2-((E)-3-pyridin-3-yl-allanoylamino)-4,7-dihydro-5H-thieno[2,3-c]pyridine-6-carboxylic acid propyl ester] | ≥ 50 | ≤ 0.5
N#Cc1c(NC(=O)/C=C/c2cccnc2)sc2c1CCN(C(=O)OCc1ccccn1)C2 [Example 149, 3-Cyano-2-((E)-3-pyridin-3-yl-allanoylamino)-4,7-dihydro-5H-thieno[2,3-c]pyridine-6-carboxylic acid pyridin-2-ylmethyl ester] | ≥ 100 | ≤ 2
COC(=O)c1ccc(OC(=O)N2CCc3c(sc(NC(=O)/C=C/c4cccnc4)c3C#N)C2)cc1 [Example 151, 3-Cyano-2-((E)-3-pyridin-3-yl-allanoylamino)-4,7-dihydro-5H-thieno[2,3-c]pyridine-6-carboxylic acid 4-methoxycarbonyl-phenyl ester] | ≥ 100 | ≤ 2
COc1cccc(CCOC(=O)N2CCc3c(sc(NC(=O)/C=C/c4cccnc4)c3C#N)C2)c1 [Example 152, 3-Cyano-2-((E)-3-pyridin-3-yl-allanoylamino)-4,7-dihydro-5H-thieno[2,3-c]pyridine-6-carboxylic acid 2-(3-methoxy-phenyl)-ethyl ester] | ≥ 100 | ≤ 2
N#Cc1c(NC(=O)/C=C/c2cccnc2)sc2c1CCN(C(=O)Oc1ccccn1)C2 [Example 154, 3-Cyano-2-((E)-3-pyridin-3-yl-allanoylamino)-4,7-dihydro-5H-thieno[2,3-c]pyridine-6-carboxylic acid pyridin-2-yl ester] | ≥ 100 | ≤ 2
N#Cc1c(NC(=O)/C=C/c2cccnc2)sc2c1CCN(C(=O)OCCN1CCOCC1)C2 [Example 156, 3-Cyano-2-((E)-3-pyridin-3-yl-allanoylamino) 4,7-dihydro-5H-thieno[2,3-c]pyridine-6-carboxylic acid 2-morpholin-4-yl-ethyl ester] | ≥ 100 | ≤ 2
N#Cc1c(NC(=O)/C=C/c2cccnc2)sc2c1CCN(C(=O)OCCc1ccccn1)C2 [Example 158, 3-Cyano-2-((E)-3-pyridin-3-yl-allanoylamino)-4,7-dihydro-5H-thieno[2,3-c]pyridine-6-carboxylic acid 2-pyridin-2-ylethyl ester] | ≥ 100 | ≤ 2
COC(=O)CCOC(=O)N1CCc2c(sc(NC(=O)/C=C/c3cccnc3)c2C#N)C1 [Example 162, 3-Cyano-2-((E)-3-pyridin-3-yl-allanoylamino)-4,7-dihydro-5H-thieno[2,3-c]pyridine-6-carboxylic acid 2-methoxycarbonyl-ethyl ester] | ≥ 100 | ≤ 2
